In US12435087B2, “Modulators of DCN-1 and methods of use thereof” (Cellarity, Inc., priority 2023, dated 2025):
Where two headings read alike, the source gives them in different places.

Biological target: DCN1 (DCUND1) protein PONY domain (Homo sapiens (Human), UniProt Q96GG9)
Assay: TR-FRET assay (binding to DCN-1, displacement of FAM-labeled probe)
Excerpt: (§1) The TR-FRET assay was designed following the Scott et al. protocol (Scott et al., Nat Chem Biol. 2017 August; 13(8): 850-857. doi:10.1038/nchembio.2386). The recombinant form of the DCN1 (DCUND1) protein PONY domain was produced using an E. coli expression system at Viva Biotech (China). The DCN1 protein was biotinylated (EZ sulfo-NHS-LC-biotin; Thermofisher) for labeling with streptavidin terbium (Tb) cryptate in the reaction. The probe was changed to a non-covalent DCN1 inhibitor labeled with carboxyfluorescein (FAM; Zhou et al., Nat Commun. 2017; 8: 1150. doi: 10.1038/s41467-017-01243-7). Buffer conditions were modified to enhance protein stability by exchanging Tween20 for TritonX and increasing NaCl to 200 mM. The compounds were screened against 5 nM DCN1 and 20 nM FAM-probe or 0.31 nM DCN1 and 900 nM total probe (100 nM FAM-labeled plus 800 nM unlabeled). The TR-FRET ratio between Tb-DCN1 and the FAM-labeled probe was measured in a 384-well opti-plate (Perkin Elmer) using a plate reader (BMG) at 1, 5, and 24 hrs after treatment with compound (final DMSO concentration of 0.1%). The ratio was normalized to the high (DCN1 and FAM-probe) and low (DCN1 and no probe) controls for a readout of % activity (=100*(x−low)/(high−low).
A TR-FRET assay was performed to evaluate the ability of the compounds to bind the DCN-1 protein.
as §1, with “850-857. Doi: 10.1038/nchembio.2386).” for “850-857. doi:10.1038/nchembio.2386).”, “the DCNI” for “the DCN1”, “1150. Doi:” for “1150. doi:”, “0.1%).” for “0.1%). The ratio was normalized to the high (DCN1 and FAM-probe) and low (DCN1 and no probe) controls for a readout of % activity (=100*(x−low)/(high−low).”

[1] = 24 hr after treatment with compound, read-out: TR FRET IC50 24 hr
[2] = TR FRET IC50 1 hr (nM), 1 hr after treatment with compound
[3] = read-out: TR FRET IC50 1 hr, 1 hr after treatment with compound

DCN1 (DCUND1) protein PONY domain, sequence (Q96GG9 60-248): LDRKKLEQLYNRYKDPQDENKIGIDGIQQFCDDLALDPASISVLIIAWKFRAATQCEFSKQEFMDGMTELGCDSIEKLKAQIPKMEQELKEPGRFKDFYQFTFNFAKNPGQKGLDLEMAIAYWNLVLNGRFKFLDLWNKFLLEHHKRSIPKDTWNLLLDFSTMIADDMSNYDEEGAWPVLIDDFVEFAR

| SMILES | IC50 [1] | IC50 [2] | IC50 [3] |
| --- | --- | --- | --- |
| CCN1C(=O)[C@H](NC(=O)c2cccc(C(F)(F)F)c2)[C@@H](c2cccc(NC(=O)C34CC3C4)c2)c2c(C)nn(-c3ccccc3)c21 (mixture of isomers) [Compound I-80] | 1000 to 3000 nM | 1000 to 3000 nM | – |
| CCN1C(=O)[C@@H](NC(=O)c2cccc(C(F)(F)F)c2)[C@H](c2cccc(CNC(=O)C(F)Cl)c2)c2cnn(-c3ccccc3)c21 (mixture of isomers) [Compound I-100] | 1000 to 3000 nM | 1000 to 3000 nM | – |
| CCN1C(=O)[C@@H](NC(=O)c2cccc(C(F)(F)F)c2)[C@H](c2ccccc2CNC(=O)C(F)Cl)c2cnn(-c3ccccc3)c21 (mixture of isomers) [Compound I-105] | 1000 to 3000 nM | 1000 to 3000 nM | – |
| CCN1C(=O)[C@@H](NC(=O)c2cccc(C(F)(F)F)c2)[C@H](c2cccc(CNC(=O)C(C)Cl)c2)c2cnn(-c3ccccc3)c21 (mixture of isomers) [Compound I-112] | 1000 to 3000 nM | 1000 to 3000 nM | – |
| CCN1C(=O)[C@@H](NC(=O)c2cccc(C(F)(F)F)c2)[C@H](c2ccccc2CNC(=O)C(C)Cl)c2cnn(-c3ccccc3)c21 (mixture of isomers) [Compound I-114] | 1000 to 3000 nM | 1000 to 3000 nM | – |
| C=C(CN1C[C@@H]2C[C@H]1CO2)C(=O)NCc1cccc([C@@H]2c3cnn(-c4ccccc4)c3N(CC)C(=O)[C@H]2NC(=O)c2nccc(C(F)(F)F)n2)c1 (mixture of isomers) [Compound I-160] | ≤ 200 nM | – | ≤ 200 nM |
| CCN1C(=O)[C@@H](NC(=O)c2nccc(C(F)(F)F)n2)[C@H](c2cccc(C(=O)N3CCC[C@@H]3C#N)c2)c2cnn(-c3ccccc3)c21 (mixture of isomers) [Compound I-250] | 1000 to 3000 nM | 1000 to 3000 nM | – |
| C=C(CN1CCOCC1)C(=O)N[C@H](C)c1cccc([C@@H]2c3cnn(-c4ccccc4)c3N(CC)C(=O)[C@H]2NC(=O)c2nccc(C(F)(F)F)n2)c1 (mixture of isomers) [Compound I-281] | 200 to 1000 nM | 1000 to 3000 nM | – |
| C=C(CN1CCN(C2COC2)CC1)C(=O)N[C@H](C)c1cccc([C@@H]2c3cnn(-c4ccccc4)c3N(CC)C(=O)[C@H]2NC(=O)c2nccc(C(F)(F)F)n2)c1 (mixture of isomers) [Compound I-366] | 1000 to 3000 nM | 1000 to 3000 nM | – |
| CCN1C(=O)[C@@H](NC(=O)c2nccc(C(F)(F)F)n2)[C@H](c2cccc(C(=O)N3CC(F)(F)C[C@H]3C#N)c2)c2cnn(-c3ccccc3)c21 (mixture of isomers) [Compound I-379, N-(rac-(4R,5S)-4-(3-((S)-2-cyano-4,4-difluoropyrrolidine-1-carbonyl)phenyl)-7-ethyl-6-oxo-1-phenyl-4,5,6,7-tetrahydro-1H-pyrazolo[3,4-b]pyridin-5-yl)-4-(trifluoromethyl)pyrimidine-2-carboxamide] | 1000 to 3000 nM | 1000 to 3000 nM | – |
| C=C(CN1CCN(C2COC2)CC1)C(=O)N[C@@H](C)c1cccc([C@@H]2c3cnn(-c4ccccc4)c3N(CC)C(=O)[C@H]2NC(=O)c2nccc(C(F)(F)F)n2)c1 (mixture of isomers) [Compound I-380] | 1000 to 3000 nM | 1000 to 3000 nM | – |
| C=C(CN(C)C1COC1)C(=O)Nc1cccc([C@H]2c3c(C)nn(-c4ccccc4)c3N(CC)C(=O)[C@@H]2NC(=O)c2cccc(C(F)(F)F)c2)c1 (racemic) [Compound I-3] | ≤ 200 nM | – | ≤ 200 nM |
| CCN1C(=O)[C@H](NC(=O)c2cccc(C(F)(F)F)c2)[C@@H](c2ccccc2N2CC=CC2=O)c2cnn(-c3ccccc3)c21 (racemic) [Compound I-21] | > 3000 nM | > 3000 nM | – |
| CCN1C(=O)[C@H](NC(=O)c2cccc(C(F)(F)F)c2)[C@@H](c2ccccc2NC(C)=O)c2cnn(-c3ccccc3)c21 (racemic) [Compound I-26, rac-N-((4R,5S)-4-(2-acetamidophenyl)-7-ethyl-6-oxo-1-phenyl-4,5,6,7-tetrahydro-1H-pyrazolo[3,4-b]pyridin-5-yl)-3-(trifluoromethyl)benzamide] | > 3000 nM | > 3000 nM | – |
| CCN1C(=O)[C@@H](NC(=O)c2cccc(C(F)(F)F)c2)[C@H](c2cccc(CNC#N)c2)c2cnn(-c3ccccc3)c21 (racemic) [Compound I-29] | 1000 to 3000 nM | 1000 to 3000 nM | – |
| CCN1C(=O)[C@@H](NC(=O)c2cccc(C(F)(F)F)c2)[C@H](c2ccccc2CN(C)C#N)c2c(C)nn(-c3ccccc3)c21 (racemic) [Compound I-30] | 1000 to 3000 nM | 1000 to 3000 nM | – |
| CCN1C(=O)[C@@H](NC(=O)c2cccc(C(F)(F)F)c2)[C@H](c2ccccc2CNC#N)c2cnn(-c3ccccc3)c21 (racemic) [Compound I-31] | 1000 to 3000 nM | 1000 to 3000 nM | – |
| CCN1C(=O)[C@H](NC(=O)c2cccc(C(F)(F)F)c2)[C@@H](c2cccc(NC(=O)C#CCN3CCOCC3)c2)c2c(C)nn(-c3ccccc3)c21 (racemic) [Compound I-35] | 1000 to 3000 nM | 1000 to 3000 nM | – |
| CCN1C(=O)[C@@H](NC(=O)c2cccc(C(F)(F)F)c2)[C@H](c2cncc(NC(=O)C3=CCC3)c2)c2cnn(-c3ccccc3)c21 (racemic) [Compound I-36] | 1000 to 3000 nM | – | 1000 to 3000 nM |
| CCN1C(=O)[C@H](NC(=O)c2cccc(C(F)(F)F)c2)[C@@H](c2cccc(N(C)C(=O)/C=C/CN(C)C)c2)c2cnn(-c3ccccc3)c21 (racemic) [Compound I-39] | 1000 to 3000 nM | 1000 to 3000 nM | – |
| CCN1C(=O)[C@@H](NC(=O)c2cccc(C(F)(F)F)c2)[C@H](c2cccc(CN(C)C#N)c2)c2c(C)nn(-c3ccccc3)c21 (racemic) [Compound I-40] | 1000 to 3000 nM | 1000 to 3000 nM | – |
| C=C(CC(=O)OC)C(=O)Nc1cccc([C@@H]2c3c(C)nn(-c4ccccc4)c3N(CC)C(=O)[C@H]2NC(=O)c2cccc(C(F)(F)F)c2)c1 (racemic) [Compound I-41] | 1000 to 3000 nM | 1000 to 3000 nM | – |
| CCN1C(=O)[C@H](NC(=O)c2cccc(C(F)(F)F)c2)[C@@H](c2ccccc2NC(=O)C23CC2C3)c2cnn(-c3ccccc3)c21 (mixture of isomers) [Compound I-45, {N}-[2-[˜{rac}-(4˜{S},5˜{R})-7-ethyl-6-oxo-1-phenyl-5-[[3-(trifluoromethyl)benzoyl]amino]-4,5-dihydropyrazolo[3,4-b]pyridin-4-yl]phenyl]bicyclo[1.1.0]butane-1-carboxamide] | 1000 to 3000 nM | 1000 to 3000 nM | – |
| CCN1C(=O)[C@@H](NC(=O)c2cccc(C(F)(F)F)c2)[C@H](c2ccccc2CN(C)C#N)c2cnn(-c3ccccc3)c21 (racemic) [Compound I-49] | 1000 to 3000 nM | 1000 to 3000 nM | – |
| CCN1C(=O)[C@@H](NC(=O)c2cccc(C(F)(F)F)c2)[C@H](c2cccc(CNC(=O)/C=C/CN(C)C)c2)c2cnn(-c3ccccc3)c21 (racemic) [Compound I-53] | 1000 to 3000 nM | 1000 to 3000 nM | – |
| C=C(CN1CCOCC1)C(=O)Nc1cccc([C@@H]2c3c(C)nn(-c4ccccc4)c3N(CCO)C(=O)[C@@H]2NC(=O)c2cccc(C(F)(F)F)c2)c1 (racemic) [Compound I-55, rac-N-((4R,5R)-7-(2-hydroxyethyl)-3-methyl-4-(3-(2-(morpholinomethyl)acrylamido)phenyl)-6-oxo-1-phenyl-4,5,6,7-tetrahydro-1H-pyrazolo[3,4-b]pyridin-5-yl)-3-(trifluoromethyl)benzamide] | 1000 to 3000 nM | 1000 to 3000 nM | – |
| CCN1C(=O)[C@@H](NC(=O)c2cccc(C(F)(F)F)c2)[C@H](c2cccc(NC(=O)/C=C/CN(C)C)c2F)c2cnn(-c3ccccc3)c21 (racemic) [Compound I-56] | ≤ 200 nM | 200 to 1000 nM | – |
| CCN1C(=O)[C@@H](NC(=O)c2cccc(C(F)(F)F)c2)[C@H](c2cccc(NC(=O)C3=CCCN(C)C3)c2)c2cnn(-c3ccccc3)c21 (racemic) [Compound I-58] | ≤ 200 nM | 1000 to 3000 nM | – |
| CCN1C(=O)[C@@H](NC(=O)c2cccc(C(F)(F)F)c2)[C@H](c2ccccc2CNC(=O)/C=C/C(=O)OC)c2cnn(-c3ccccc3)c21 (racemic) [Compound I-67] | 1000 to 3000 nM | 1000 to 3000 nM | – |
| C=C(CO)C(=O)Nc1cccc([C@@H]2c3c(C)nn(-c4ccccc4)c3N(CC)C(=O)[C@H]2NC(=O)c2cccc(C(F)(F)F)c2)c1 (racemic) [Compound I-71] | 200 to 1000 nM | 1000 to 3000 nM | – |
